Test results from patent publication US9938322B2, “β-hairpin peptidomimetics” (priority 2013, dated 2018).
Where a SMILES comes first, the peptide text is derived from it. [ ]: non-standard residue; d: D form. Phe(4-NH2) = Nc1ccc(C[C@H](N)C(=O)O)cc1; Cha = N[C@@H](CC1CCCCC1)C(=O)O; Chg = N[C@H](C(=O)O)C1CCCCC1; Tle = CC(C)(C)[C@H](N)C(=O)O; dDab = NCC[C@@H](N)C(=O)O; Orn = NCCC[C@H](N)C(=O)O; Dab = NCC[C@H](N)C(=O)O; Nva = CCC[C@H](N)C(=O)O; Dap = NC[C@H](N)C(=O)O

Tested on: human red blood cells (hRBC)
Experiment: Hemolysis of human red blood cells
Format: cell-based
Details: red cells of human, 1 h, 100
Outline: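 Washed fresh human erythrocytes (20% v/v, about 0.9×10^9 cells/ml final) incubated with peptide at 100 μg/ml for 1 h at 37° C with shaking. Supernatant OD540 read; hemolysis expressed relative to 2.5% Triton X-100 (100%) and PBS with 0.001% acetic acid (0%).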

| SMILES | Hemolysis at 100 μg/ml [%] |
| --- | --- |
| CCC[C@@H]1NC(=O)[C@H](CCN)NC(=O)[C@H](Cc2c[nH]c3ccccc23)NC(=O)[C@H](CCN)NC(=O)[C@@H](CCN)NC(=O)[C@H](CCCN)NC(=O)[C@H](CCN)NC(=O)[C@H](C(C)(C)C)NC(=O)[C@H](CO)NC(=O)[C@H](Cc2c[nH]c3ccccc23)NC(=O)[C@@H]2CCCN2C(=O)[C@H]2CCCN2C(=O)[C@H](CO)NC(=O)[C@H](C)NC1=O [compound 67] (cyclo(WS[Tle][Dab][Orn][dDab][Dab]W[Dab][Nva]AS[dP]P)) | 1 |
| C[C@@H]1NC(=O)[C@H](C(C)(C)C)NC(=O)[C@H](CCN)NC(=O)[C@H](Cc2c[nH]c3ccccc23)NC(=O)[C@H](CCN)NC(=O)[C@@H](CCN)NC(=O)[C@H](CCCN)NC(=O)[C@H](CCN)NC(=O)[C@H](C(C)(C)C)NC(=O)[C@H](CO)NC(=O)[C@H](Cc2c[nH]c3ccccc23)NC(=O)[C@@H]2CCCN2C(=O)[C@H]2CCCN2C(=O)[C@H](CO)NC1=O [compound 68] (cyclo(WS[Tle][Dab][Orn][dDab][Dab]W[Dab][Tle]AS[dP]P)) | 0 |
| C[C@@H]1NC(=O)[C@H](C2CCCCC2)NC(=O)[C@H](CCN)NC(=O)[C@H](Cc2c[nH]c3ccccc23)NC(=O)[C@H](CCN)NC(=O)[C@@H](CCN)NC(=O)[C@H](CCCN)NC(=O)[C@H](CCN)NC(=O)[C@H](C(C)(C)C)NC(=O)[C@H](CO)NC(=O)[C@H](Cc2ccc(O)cc2)NC(=O)[C@@H]2CCCN2C(=O)[C@H]2CCCN2C(=O)[C@H](CO)NC1=O [compound 69] (cyclo(YS[Tle][Dab][Orn][dDab][Dab]W[Dab][Chg]AS[dP]P)) | 7 |
| C[C@@H]1NC(=O)[C@H](CC2CCCCC2)NC(=O)[C@H](CCN)NC(=O)[C@H](Cc2c[nH]c3ccccc23)NC(=O)[C@H](CCN)NC(=O)[C@@H](CCN)NC(=O)[C@H](CCCN)NC(=O)[C@H](CCN)NC(=O)[C@H](Cc2ccc(O)cc2)NC(=O)[C@H](CO)NC(=O)[C@H](Cc2c[nH]c3ccccc23)NC(=O)[C@@H]2CCCN2C(=O)[C@H]2CCCN2C(=O)[C@H](CO)NC1=O [compound 70] (cyclo(WSY[Dab][Orn][dDab][Dab]W[Dab][Cha]AS[dP]P)) | 5 |
| CCC[C@@H]1NC(=O)[C@H](CCN)NC(=O)[C@H](Cc2c[nH]c3ccccc23)NC(=O)[C@H](CCN)NC(=O)[C@@H](CCN)NC(=O)[C@H](CCCN)NC(=O)[C@H](CCN)NC(=O)[C@H](Cc2ccc(O)cc2)NC(=O)[C@H](CO)NC(=O)[C@H](Cc2c[nH]c3ccccc23)NC(=O)[C@@H]2CCCN2C(=O)[C@H]2CCCN2C(=O)[C@H](CO)NC(=O)[C@H](C)NC1=O [compound 71] (cyclo(WSY[Dab][Orn][dDab][Dab]W[Dab][Nva]AS[dP]P)) | 0 |
| CC(C)[C@@H]1NC(=O)[C@H](CCN)NC(=O)[C@H](Cc2c[nH]c3ccccc23)NC(=O)[C@H](CCN)NC(=O)[C@@H](CCN)NC(=O)[C@H](CCCN)NC(=O)[C@H](CCN)NC(=O)[C@H](Cc2ccc(O)cc2)NC(=O)[C@H](CO)NC(=O)[C@H](Cc2c[nH]c3ccccc23)NC(=O)[C@@H]2CCCN2C(=O)[C@H]2CCCN2C(=O)[C@H](CO)NC(=O)[C@H](C)NC1=O [compound 72] (cyclo(WSY[Dab][Orn][dDab][Dab]W[Dab]VAS[dP]P)) | 0 |
| C[C@@H]1NC(=O)[C@H](C2CCCCC2)NC(=O)[C@H](CCN)NC(=O)[C@H](Cc2c[nH]c3ccccc23)NC(=O)[C@H](CCN)NC(=O)[C@@H](CCN)NC(=O)[C@H](CCCN)NC(=O)[C@H](CCN)NC(=O)[C@H](Cc2ccc(O)cc2)NC(=O)[C@H](CO)NC(=O)[C@H](Cc2ccc(O)cc2)NC(=O)[C@@H]2CCCN2C(=O)[C@H]2CCCN2C(=O)[C@H](CO)NC1=O [compound 73] (cyclo(YSY[Dab][Orn][dDab][Dab]W[Dab][Chg]AS[dP]P)) | 0 |
| C[C@@H]1NC(=O)[C@H](C(C)(C)C)NC(=O)[C@H](CCN)NC(=O)[C@H](Cc2c[nH]c3ccccc23)NC(=O)[C@H](CCN)NC(=O)[C@H](CCN)NC(=O)[C@H](CCCN)NC(=O)[C@H](CCN)NC(=O)[C@H](Cc2ccc(O)cc2)NC(=O)[C@H](CO)NC(=O)[C@H](Cc2c[nH]c3ccccc23)NC(=O)[C@@H]2CCCN2C(=O)[C@H]2CCCN2C(=O)[C@H](CO)NC1=O [compound 74] (cyclo(WSY[Dab][Orn][Dab][Dab]W[Dab][Tle]AS[dP]P)) | 0 |
| C[C@@H]1NC(=O)[C@H](Cc2c[nH]c3ccccc23)NC(=O)[C@@H]2CCCN2C(=O)[C@H]2CCCN2C(=O)[C@H](CO)NC(=O)[C@H](C)NC(=O)[C@H](C(C)(C)C)NC(=O)[C@H](CCN)NC(=O)[C@H](Cc2c[nH]c3ccccc23)NC(=O)[C@H](CCN)NC(=O)[C@@H](CCN)NC(=O)[C@H](CCCN)NC(=O)[C@H](CCN)NC(=O)[C@H](Cc2c[nH]c3ccccc23)NC1=O [compound 75] (cyclo(WAW[Dab][Orn][dDab][Dab]W[Dab][Tle]AS[dP]P)) | 1 |
| C[C@@H]1NC(=O)[C@H](CC2CCCCC2)NC(=O)[C@H](CCN)NC(=O)[C@H](Cc2c[nH]c3ccccc23)NC(=O)[C@H](CCN)NC(=O)[C@@H](CCN)NC(=O)[C@H](CCCCN)NC(=O)[C@H](CCN)NC(=O)[C@H](Cc2ccc(O)cc2)NC(=O)[C@H](C)NC(=O)[C@H](Cc2c[nH]c3ccccc23)NC(=O)[C@@H]2CCCN2C(=O)[C@H]2CCCN2C(=O)[C@H](CO)NC1=O [compound 76] (cyclo(WAY[Dab]K[dDab][Dab]W[Dab][Cha]AS[dP]P)) | 2 |
| C[C@@H]1NC(=O)[C@H](Cc2c[nH]c3ccccc23)NC(=O)[C@@H]2CCCN2C(=O)[C@H]2CCCN2C(=O)[C@H](CO)NC(=O)[C@H](C)NC(=O)[C@H](C2CCCCC2)NC(=O)[C@H](CCN)NC(=O)[C@H](Cc2c[nH]c3ccccc23)NC(=O)[C@H](CCN)NC(=O)[C@@H](CCN)NC(=O)[C@H](CCCN)NC(=O)[C@H](CCN)NC(=O)[C@H](Cc2ccc(O)cc2)NC1=O [compound 77] (cyclo(WAY[Dab][Orn][dDab][Dab]W[Dab][Chg]AS[dP]P)) | 1 |
| C[C@@H]1NC(=O)[C@H](Cc2c[nH]c3ccccc23)NC(=O)[C@@H]2CCCN2C(=O)[C@H]2CCCN2C(=O)[C@H](CO)NC(=O)[C@H](C)NC(=O)[C@H](C(C)(C)C)NC(=O)[C@H](CCN)NC(=O)[C@H](Cc2c[nH]c3ccccc23)NC(=O)[C@H](CCN)NC(=O)[C@@H](CCN)NC(=O)[C@H](CCCCN)NC(=O)[C@H](CCN)NC(=O)[C@H](Cc2ccc(O)cc2)NC1=O [compound 78] (cyclo(WAY[Dab]K[dDab][Dab]W[Dab][Tle]AS[dP]P)) | 1 |
| C[C@@H]1NC(=O)[C@H](C(C)(C)C)NC(=O)[C@H](CCN)NC(=O)[C@H](Cc2c[nH]c3ccccc23)NC(=O)[C@H](CCN)NC(=O)[C@@H](CCN)NC(=O)[C@H](CCCN)NC(=O)[C@H](CCN)NC(=O)[C@H](Cc2c[nH]c3ccccc23)NC(=O)[C@H](CN)NC(=O)[C@H](Cc2c[nH]c3ccccc23)NC(=O)[C@@H]2CCCN2C(=O)[C@H]2CCCN2C(=O)[C@H](CO)NC1=O [compound 79] (cyclo(W[Dap]W[Dab][Orn][dDab][Dab]W[Dab][Tle]AS[dP]P)) | 1 |
| CCC[C@@H]1NC(=O)[C@@H]2CCCN2C(=O)[C@H]2CCCN2C(=O)[C@H](CO)NC(=O)[C@H](C)NC(=O)[C@H](C(C)(C)C)NC(=O)[C@H](CCN)NC(=O)[C@H](Cc2c[nH]c3ccccc23)NC(=O)[C@H](CCN)NC(=O)[C@@H](CCN)NC(=O)[C@H](CCCN)NC(=O)[C@H](CCN)NC(=O)[C@H](Cc2c[nH]c3ccccc23)NC(=O)[C@H](CO)NC1=O [compound 80] (cyclo([Nva]SW[Dab][Orn][dDab][Dab]W[Dab][Tle]AS[dP]P)) | 1 |
| CC[C@H](C)[C@@H]1NC(=O)[C@H](CCN)NC(=O)[C@H](Cc2c[nH]c3ccccc23)NC(=O)[C@H](CCN)NC(=O)[C@@H](CCN)NC(=O)[C@H](CCCN)NC(=O)[C@H](CCN)NC(=O)[C@H](Cc2ccc(O)cc2)NC(=O)[C@H](CO)NC(=O)[C@H]([C@@H](C)CC)NC(=O)[C@@H]2CCCN2C(=O)[C@H]2CCCN2C(=O)[C@H](CO)NC(=O)[C@H](C)NC1=O [compound 81] (cyclo(ISY[Dab][Orn][dDab][Dab]W[Dab]IAS[dP]P)) | 1 |
| CC[C@H](C)[C@@H]1NC(=O)[C@@H]2CCCN2C(=O)[C@H]2CCCN2C(=O)[C@H](CO)NC(=O)[C@H](C)NC(=O)[C@H](C(C)(C)C)NC(=O)[C@H](CCN)NC(=O)[C@H](Cc2c[nH]c3ccccc23)NC(=O)[C@H](CCN)NC(=O)[C@@H](CCN)NC(=O)[C@H](CCCCN)NC(=O)[C@H](CCN)NC(=O)[C@H](Cc2ccc(O)cc2)NC(=O)[C@H](CO)NC1=O [compound 82] (cyclo(ISY[Dab]K[dDab][Dab]W[Dab][Tle]AS[dP]P)) | 1 |
| CC[C@H](C)[C@@H]1NC(=O)[C@@H]2CCCN2C(=O)[C@H]2CCCN2C(=O)[C@H](CO)NC(=O)[C@H](C)NC(=O)[C@H](C(C)(C)C)NC(=O)[C@H](CCN)NC(=O)[C@H](Cc2c[nH]c3ccccc23)NC(=O)[C@H](CCN)NC(=O)[C@@H](CCN)NC(=O)[C@H](CCCN)NC(=O)[C@H](CCN)NC(=O)[C@H](Cc2ccc(N)cc2)NC(=O)[C@H](CO)NC1=O [compound 83] (cyclo(IS[Phe(4-NH2)][Dab][Orn][dDab][Dab]W[Dab][Tle]AS[dP]P)) | 0.5 |
| CC[C@H](C)[C@@H]1NC(=O)[C@@H]2CCCN2C(=O)[C@H]2CCCN2C(=O)[C@H](CO)NC(=O)[C@H](C)NC(=O)[C@H](C(C)(C)C)NC(=O)[C@H](CCN)NC(=O)[C@H](Cc2c[nH]c3ccccc23)NC(=O)[C@H](CCN)NC(=O)[C@@H](CCN)NC(=O)[C@H](CCCN)NC(=O)[C@H](CCN)NC(=O)[C@H](Cc2ccc(O)cc2)NC(=O)[C@H]([C@@H](C)O)NC1=O [compound 84] (cyclo(ITY[Dab][Orn][dDab][Dab]W[Dab][Tle]AS[dP]P)) | 0 |
| CC[C@H](C)[C@@H]1NC(=O)[C@@H]2CCCN2C(=O)[C@H]2CCCN2C(=O)[C@H](CO)NC(=O)[C@H](C)NC(=O)[C@H](C(C)(C)C)NC(=O)[C@H](CCN)NC(=O)[C@H](Cc2c[nH]c3ccccc23)NC(=O)[C@H](CCN)NC(=O)[C@@H](CCN)NC(=O)[C@H](CCCN)NC(=O)[C@H](CCN)NC(=O)[C@H](Cc2ccc(O)cc2)NC(=O)[C@H](CC(N)=O)NC1=O [compound 85] (cyclo(INY[Dab][Orn][dDab][Dab]W[Dab][Tle]AS[dP]P)) | 0 |
